Experimental data reported in patent US20090054338A1, “Synergisms between repartitioning and immunomodulating compounds” (priority 2007, published 2009).

Legend:
[1] = test system: mice; experiment: Stress-induced mortality (modified physostigmine-induced lethality test); type: in vivo
Text: A modification of the physostigmine-induced lethality test that successfully was used for testing of sedation by Schering in the loratadine project (Villani F. J., et al., U.S. Pat. No. 4,659,716, 1987) and by Sepracor in the desloratadine project (Aberg, G. et al. U.S. Pat. No. 5,595,997) was used. In short, mice that previously had not been housed together, suffer from severe stress when placed together (n=10) in a new environment, such as a small cage with which they are not familiar. […] Similarly, increased stress by ractopamine in livestock animals has been reported by Marchant-Forde et al., 2003. […] The number of surviving mice was counted 30 minutes after the animals had been placed in the test-cage, which was 60 min after the administration of ractopamine.

[2] = test system: adrenergic beta-2 receptors; experiment: Down-regulation of adrenergic beta-2 receptors, receptor binding on adipocytes; type: in vivo; conditions: rats
Text: The populations of adrenergic beta-2 receptors on cells (adipocytes) from rats are studied.

[3] = test system: barnacle naupii; conditions: cited from earlier work
[4] = test system: newborn calves; experiment: In vivo study in newborn calves (survival to weaning); design: species or system cattle
Method: The present study was performed at a farm with a high rate of mortality of newborn calves from Cryptosporidiosis and upper respiratory infections.
Two groups of 13 newborn calves were studied. All animals were given milk replacement and beta 1.3/1.6 D-glucan was added to the milk replacement for the second group.

## CC(CCc1ccc(O)cc1)NCC(O)c1ccc(O)cc1 (stereo not drawn) [ractopamine]
[1]; grouped mice in unfamiliar cage
  stress: increased the stress
[1]; mice given a sub-lethal dose of physostigmine
  mortality: increased mortality

## CNC(=O)Oc1ccc2c(c1)[C@]1(C)CCN(C)[C@@H]1N2C [physostigmine]
[1]; stressed grouped mice (n=10), 1.0 mg/kg s.c.
  lethality: ~100%

## CC(C)(C)NCC(O)c1ccc(O)c(CO)c1 (racemic) [salbutamol]
[2]; one and two weeks continuous s.c. administration by Alza osmotic pumps
  adrenergic beta-2 receptor population on adipocytes: down-regulated
[3]
  LD50: approximately 1.8 μg/ml

## beta 1.3/1.6 D-glucan [Agrastim®]
[4]; 8 weeks treatment in milk replacement, control 7 out of 13
  survival of calves: 12 out of 13
[4]; 13 calves born, 500 mg day 1, 250 mg/day day 2-56 in milk replacement, farm with high calf mortality
  Calves Weaned: 12
[2]; glucan given one week before pump implantation and continuously thereafter
  effect on salbutamol-induced down-regulation of adrenergic beta-2 receptors: decreased or inhibited
[1]; mice pretreated orally daily for five days, survivors counted 30 min after placing in test-cage, 60 min after ractopamine
  stress and stress-induced mortality in ractopamine-treated animals: significantly decreased stress and stress-induced mortality
